Legend:
P99A266C beta-lactamase = target: T1, P99A266C beta-lactamase (Enterobacter cloacae, UniProt P05364, A266C); experiment: Kinetic assay, reporter substrate competition (colorimetric assay); type: biochemical, Enterobacter cloacae P99
T1 construct: made in house; host or cells: E. coli BL21(DE3), pET28 vector
Description: (§1) The colorimetric assay used the competition between a reporter substrate and a beta-lactam antibiotic towards the catalytic site of the class C beta-lactamase. In the absence of beta-lactam antibiotic, the class C beta-lactamase P99 hydrolyzed rapidly the reporter substrate and this reaction produced a deep red (nitrocefin) or yellow (CENTA) coloration.
(§2) In the presence of beta-lactam antibiotic, P99 catalytic activity was less available and thus less able to hydrolyze the reporter substrate. Accordingly, the higher the concentration of beta-lactam antibiotic, the lower the coloration of the medium. In this enzymatic competitive kinetic assay, the UV-Visible absorbance was inversely proportional to the concentration of beta-lactam antibiotic.
(§3) Report substrate: A stock solution of reporter substrate consisting of 10 mM of CENTA in HEPES (4-(2-hydroxyethyl)-1-piperazineethanesulfonic acid) pH 7.8 (20 mM)/NaCl (200 mM) buffer was diluted 10 times in HEPES pH 7.8 (20 mM)/NaCl (200 mM) buffer.
(§4) Solution of enzyme: in a spectrophotometer cell, containing HEPES/NaCl buffer (400 μL) and CENTA (100 μL, 100 μM); 20 μL of P99 enzyme solution was added. The concentration of P99 enzyme was variable in function of the preparation and ranged between 0.01 mg/ml to 100 mg/ml. The absorbance variation was measured at 405 nm during 1 min. The enzyme solution used in the experiment was then diluted until the absorbance variation was comprised between 35 and 45 mUAbs/min cm^−1. This diluted solution was further used in this example.
(§5) 8 standard solutions per antibiotic tested were deposited on a 96-well microplate (40 μL).
(§6) The absorbance was measured using a microplate reader, with each column being measured separately. The program comprised following the kinetic during 4 min, with 1 measure at 405 nm every 10 seconds (24 measures). In each well and simultaneously, a mixture of 45 μl HEPES/NaCl buffer and 5 μl P99 solution was added. The same mixture was used for the 8 wells of each column, and thus prepared in advance for distribution with a multi-channel pipette. After 1 min incubation at 20° C., the reading was started, and KC Junior™ software (BioTek Instruments, Winooski, Vt.) was used to calculate the slope of each reaction kinetic. The experiments were made in triplicate and reproduced over 5 different days.
(§7) Kinetic assays with the P99 beta-lactamase and with P99A266C beta-lactamase were performed in order to test and compare the enzyme activities.

P99 beta-lactamase = P99 beta-lactamase (Enterobacter cloacae, UniProt P05364); experiment: as above; type: biochemical; design: made in house; host or cells: E. coli BL21(DE3), pET28-P99
Chain of P99 beta-lactamase (P05364 22-380, added parts left off): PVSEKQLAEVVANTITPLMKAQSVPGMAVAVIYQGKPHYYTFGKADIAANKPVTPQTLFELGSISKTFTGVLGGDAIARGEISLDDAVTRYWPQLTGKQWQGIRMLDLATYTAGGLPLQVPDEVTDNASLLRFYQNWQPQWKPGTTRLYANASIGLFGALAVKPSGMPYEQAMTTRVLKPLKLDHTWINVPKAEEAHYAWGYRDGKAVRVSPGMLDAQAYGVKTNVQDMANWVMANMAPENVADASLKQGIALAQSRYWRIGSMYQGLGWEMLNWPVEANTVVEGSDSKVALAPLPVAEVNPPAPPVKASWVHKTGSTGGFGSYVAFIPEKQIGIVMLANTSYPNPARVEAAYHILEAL
Description: as §1, §2, §3, §4, §5, §6, §7

[1] = target: class C beta-lactamase of Enterobacter cloacae P99 (Enterobacter cloacae, UniProt P05364); conditions: cited from earlier work
Chain of class C beta-lactamase of Enterobacter cloacae P99 (P05364 21-381): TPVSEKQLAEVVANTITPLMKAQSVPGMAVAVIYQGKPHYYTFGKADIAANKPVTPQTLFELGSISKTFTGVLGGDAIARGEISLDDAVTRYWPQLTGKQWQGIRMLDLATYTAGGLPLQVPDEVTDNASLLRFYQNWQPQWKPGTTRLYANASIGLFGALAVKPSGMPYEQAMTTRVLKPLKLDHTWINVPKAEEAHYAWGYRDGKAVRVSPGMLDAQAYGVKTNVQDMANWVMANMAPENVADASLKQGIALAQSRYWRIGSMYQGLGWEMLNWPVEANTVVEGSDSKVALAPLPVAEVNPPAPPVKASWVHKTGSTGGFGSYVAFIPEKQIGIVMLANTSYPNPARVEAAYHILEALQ

[2] = system: class C beta-lactamase of Enterobacter cloacae 908R; conditions: cited from earlier work
[3] = target: class C beta-lactamase of Citrobacter freundii (Citrobacter freundii, UniProt P05193); conditions: cited from earlier work
Chain of class C beta-lactamase of Citrobacter freundii (P05193 21-381): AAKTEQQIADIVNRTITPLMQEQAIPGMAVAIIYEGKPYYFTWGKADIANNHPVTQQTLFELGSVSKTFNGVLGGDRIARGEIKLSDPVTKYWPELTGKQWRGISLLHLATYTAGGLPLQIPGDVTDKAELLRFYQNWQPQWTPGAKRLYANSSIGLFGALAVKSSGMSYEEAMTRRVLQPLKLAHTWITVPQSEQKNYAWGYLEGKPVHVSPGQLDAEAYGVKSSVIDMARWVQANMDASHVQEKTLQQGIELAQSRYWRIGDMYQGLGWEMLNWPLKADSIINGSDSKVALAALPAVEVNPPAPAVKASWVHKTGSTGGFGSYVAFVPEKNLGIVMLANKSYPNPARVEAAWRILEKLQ

[4] = target: class C beta-lactamase of Escherichia coli K12 (Escherichia coli, UniProt P00811); conditions: cited from earlier work
Chain of class C beta-lactamase of Escherichia coli K12 (P00811 20-377): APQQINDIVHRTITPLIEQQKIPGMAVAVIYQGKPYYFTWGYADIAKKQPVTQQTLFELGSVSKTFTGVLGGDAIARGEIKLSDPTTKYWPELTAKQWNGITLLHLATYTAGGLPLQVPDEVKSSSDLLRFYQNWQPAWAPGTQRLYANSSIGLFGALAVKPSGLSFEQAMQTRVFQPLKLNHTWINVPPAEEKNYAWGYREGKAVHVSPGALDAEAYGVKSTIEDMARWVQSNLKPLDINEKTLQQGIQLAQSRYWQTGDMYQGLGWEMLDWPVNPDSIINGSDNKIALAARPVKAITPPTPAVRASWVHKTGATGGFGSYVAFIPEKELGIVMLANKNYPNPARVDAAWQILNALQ

[5] = target: class C beta-lactamase of Serratia marcescens (Serratia marcescens, UniProt P18539); conditions: cited from earlier work; for kcat: Serratia marcescens
Chain of class C beta-lactamase of Serratia marcescens (P18539 22-376): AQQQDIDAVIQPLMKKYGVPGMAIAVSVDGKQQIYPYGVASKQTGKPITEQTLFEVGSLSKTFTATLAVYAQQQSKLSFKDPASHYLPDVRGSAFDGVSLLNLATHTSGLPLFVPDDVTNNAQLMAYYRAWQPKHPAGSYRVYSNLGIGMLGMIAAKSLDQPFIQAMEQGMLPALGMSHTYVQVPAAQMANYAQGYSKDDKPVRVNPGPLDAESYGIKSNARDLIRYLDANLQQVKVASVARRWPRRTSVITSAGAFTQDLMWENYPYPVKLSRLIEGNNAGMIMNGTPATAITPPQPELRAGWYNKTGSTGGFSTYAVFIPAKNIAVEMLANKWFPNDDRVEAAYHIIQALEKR

[6] = target: class C beta-lactamase of Pseudomonas aeruginosa (Pseudomonas aeruginosa, UniProt P24735); conditions: cited from earlier work; for kcat: Pseudomonas aeruginosa
Chain of class C beta-lactamase of Pseudomonas aeruginosa (P24735 27-397): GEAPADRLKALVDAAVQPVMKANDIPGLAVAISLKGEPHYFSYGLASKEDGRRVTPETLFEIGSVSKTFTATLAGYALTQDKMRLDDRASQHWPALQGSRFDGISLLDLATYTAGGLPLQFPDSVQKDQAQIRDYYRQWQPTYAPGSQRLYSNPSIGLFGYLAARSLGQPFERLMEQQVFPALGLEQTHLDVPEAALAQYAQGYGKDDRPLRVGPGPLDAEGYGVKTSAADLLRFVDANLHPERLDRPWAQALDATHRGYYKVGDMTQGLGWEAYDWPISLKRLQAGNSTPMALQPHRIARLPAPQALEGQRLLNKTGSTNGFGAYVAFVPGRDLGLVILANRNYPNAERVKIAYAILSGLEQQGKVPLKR

T1 sequence (P05364 other isoform, or with tags, fused parts or gaps A266C): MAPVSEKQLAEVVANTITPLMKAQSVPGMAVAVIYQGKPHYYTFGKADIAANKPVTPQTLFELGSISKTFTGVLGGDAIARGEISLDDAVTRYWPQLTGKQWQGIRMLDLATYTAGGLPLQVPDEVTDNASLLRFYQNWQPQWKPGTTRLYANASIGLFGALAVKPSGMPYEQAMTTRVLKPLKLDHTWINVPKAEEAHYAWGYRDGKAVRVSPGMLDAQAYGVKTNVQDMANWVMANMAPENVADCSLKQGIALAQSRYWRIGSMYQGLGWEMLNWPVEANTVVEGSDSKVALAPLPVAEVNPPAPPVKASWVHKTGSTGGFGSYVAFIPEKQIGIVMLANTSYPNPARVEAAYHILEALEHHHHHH

Compound	kcat [1]	Km [2]	kcat [2]	kcat [3]	kcat [4]	kcat [5]	Km [5]	kcat [6]	Km [6]	other results
CCN1CCN(C(=O)N[C@@H](C(=O)N[C@@H]2C(=O)N3[C@@H]2SC(C)(C)[C@@H]3C(=O)O)c2ccccc2)C(=O)C1=O [Piperacillin]	–	–	–	–	–	–	–	–	–	Diff. (%) P99 vs P99A266C (P99A266C beta-lactamase; antibiotic 5 ug/ml): 16%; P99A266C rate (P99A266C beta-lactamase; antibiotic 5 ug/ml): 8.3 mUAbs/min; Diff. (%) P99 vs P99A266C (P99A266C beta-lactamase; antibiotic 10 ug/ml): 4%; P99A266C rate (P99A266C beta-lactamase; antibiotic 10 ug/ml): 6.1 mUAbs/min; Diff. (%) P99 vs P99A266C (P99A266C beta-lactamase; antibiotic 20 ug/ml): 6%; P99A266C rate (P99A266C beta-lactamase; antibiotic 20 ug/ml): 3.8 mUAbs/min; Diff. (%) P99 vs P99A266C (P99A266C beta-lactamase; antibiotic 40 ug/ml): −4%; P99A266C rate (P99A266C beta-lactamase; antibiotic 40 ug/ml): 2.5 mUAbs/min; P99 rate (P99 beta-lactamase; antibiotic 5 ug/ml): 9.7 mUAbs/min; P99 rate (P99 beta-lactamase; antibiotic 10 ug/ml): 6.4 mUAbs/min; P99 rate (P99 beta-lactamase; antibiotic 20 ug/ml): 4.0 mUAbs/min; P99 rate (P99 beta-lactamase; antibiotic 40 ug/ml): 2.4 mUAbs/min
CC1(C)S[C@@H]2[C@H](NC(=O)Cc3ccccc3)C(=O)N2[C@H]1C(=O)O [Benzylpenicillin]	14 s⁻¹	0.5 µM	18 s⁻¹	31 s⁻¹	45 s⁻¹	75 s⁻¹	1.7 µM	76 s⁻¹	1.7 µM	Km [1]: 0.6 µM; Km [3]: 0.4 µM
O=C(Cc1cccs1)N[C@@H]1C(=O)N2C(C(=O)[O-])=C(C[n+]3ccccc3)CS[C@H]12 [Cephaloridine]	700 s⁻¹	75 µM	600 s⁻¹	700 s⁻¹	130 s⁻¹	1100 s⁻¹	275 µM	110 s⁻¹	20 µM	–
